Results published in patent US10682427B2, “Intra-operative imaging” (BRACCO IMAGING S.P.A., priority 2014, dated 2020).

What was measured:
U-87MG tumor = experiment: In vivo and ex vivo fluorescence imaging of tumor uptake (IVIS Spectrum); set-up: species or system mice
Description: (§1) A431 cells were collected and washed two times with PBS. Five million cells were resuspended in 0.1 mL of DMEM high glucose medium and subcutaneously injected in the right flank of all mice. Eleven days after A431 inoculation, U-87MG cells were collected and washed two times with PBS. Two million cells were resuspended in 0.1 mL of EMEM medium and subcutaneously injected in the left flank of same animals previously injected with A431 cells.
(§2) Three weeks after A431 tumor implantation five mice were administered with 1 nmol of DA364 for a total administration volume of 0.2 mL (inj. rate 1 mL/min). In vivo OI acquisitions have been carried out 5 min, 15 min, 30 min, 1 h, 2 h, 3 h, 4 h, 6 h, 24 h and 48 hours after intravenous administration of the fluorescent probe using the IVIS Spectrum optical imaging system (Perkin Elmer). During OI experiments animals were kept under 3-4% Sevofluorane gas anaesthesia (O2 97.0-96.0%). During anaesthesia animals body temperature has been stabilized at about 37° C. using a heated bed.
(§3) Following in vivo OI experiments, 48 hours after probes injection, animals were sacrificed. Tumors, liver, kidneys, heart and spleen were excised for ex vivo fluorescent signal measure on the whole excised tumor or organ.
(§4) Fluorescence intensity from U-87 MG and A431 tumors was measured in vivo together with the signal coming from the normal healthy tissues (background).
(§5) The fluorescent signal (expressed as Radiant Efficiency (RE): p/s/(μW/cm^2), where p is the photon count), was then measured on the excised ex vivo samples using the IVIS Spectrum optical imaging system (Perkin Elmer).

A431 tumor = experiment: as above; set-up: species or system mice
Description: as §1, §2, §3, §4, §5

[1] = system: rat orthotopic prostate tumor model Mat Ly-Lu; experiment: Fluorescence guided-surgery in rat prostate tumor model, visual classification validated by histology; assay type: in vivo, Copenhagen rats
Description: This example is aimed at assessing the sensitivity of the NIR RGD cyclic probe DA364 in the recognition of tumor masses using rat orthotopic prostate tumor model Mat Ly-Lu (a tumor with reduced expression of αvβ3 integrins, as illustrated below).
Intraoperative imaging was performed on a Zeiss system, a modified surgical microscope including appropriate filters for illumination and selection of signals emitted from the probe. Rat tumoral MatLyLu prostate cells were inoculated in the right ventral lobe of the prostate. Three-four days after inoculation animals were intravenously injected with a dose ranging from 5 to 20 nmol/rat of NIR fluorescent probe and imaged 24 hours after. Tumors have been then resected through fluorescent signal guide. Tissues surrounding the fluorescent area including tissues from the left prostate lobe was excised for histological comparison. All the samples were analysed through routine histological processing (Hematoxylin and eosin stain) and additional immune-labelling.
The experiment was performed on 10 Copenhagen rats (males) 11 weeks old, purchased from Harlan Laboratories Srl, S.Pietro al Natisone (UD), Italy. Rat prostate adenocarcinoma was induced in Copenhagen rats by orthotopic injection of the MatLylu tumor cells under isofluorane anesthesia. About 1 hour before tumor implantation, an analgesic (Rymadil) was administered subcutaneously (5 mg/kg) to rats. Then the lower abdomen was shaved and disinfected (Betadinen. A 12 mm incision of the abdominal wall along the linea Alba was performed 3 to 4 cm above the urinary orifice. The prostate was exposed after having pushed away the adipose tissue on each side of the animal.
A cell suspension (30 μL) containing 0.5×10^6 tumor cells was injected with a 27G needle into the right ventral lobe of the prostate. The muscular and cutaneous plan was sewed up with sterile non-resorbable thread (3-0 black silk, Distrex S.p.a.). The wound was painted with disinfectant solution Betadine®. The analgesic was also administered at least once after surgery (about 24 h after). All procedures involving the animals have been conducted according to national and international laws and policies for the Care and Use of Laboratory Animals (EEC Council Directive 86/609CEE; L.D. 116/92 and EEC Council Directive 2010/63/EU; L.D. 26/2014. Authorization n.149/2006-A issued Oct. 27, 2006 by the Italian Ministry of Health).
The tumor removal was performed using a dedicated surgical microscope (Axio Zoom v16, Carl Zeiss Beteiligungs GmbH, Jena, Germany). The microscope was equipped with a PLANAPO Z 0.5×/0.125 FWD 114 MM objective. During surgery an area of about 2.5×2.5 cm^2 was visualized. The surgical field was white-light illuminated by a cold light source (CL 9000 LED CAN (D)) when the fluorescence signal was not required, and by filtered light during the tumor removal (Illuminator: HXP 200C (D), filter set: 32 Cy 5.5 shift free (E)).
The day before surgery, corresponding to 3-4 days after tumor implantation, animals were administered with a dose of DA364 test agent ranging from 5 to 20 nmol/rat. Twenty-four hours after probes injection, animals were anaesthetized with isofluorane gas 0.5% (O2 99.5%), secured on the surgical table in the supine position and prostate tumor will be exposed.
After the removal of the prostatic capsule, the prostatic tumor was exposed to filtered light and fluorescence images were acquired to outline the primary tumor mass and the margins of the pathology (see FIG. 3, Panels A and D). The removal of the tumor mass was then carried out iteratively, by using fluorescence to guide the excision until absence of the fluorescent signal in the area surrounding tumor region (see FIG. 3, Panels B,E and C,F). Most of the fluorescent signal was confined in implantation area, i.e. the prostate right ventral lobe. […]

[2] = ex vivo, 48 hours after 1 nmol i.v.
[3] = 5 to 20 nmol/rat i.v., surgery 24 h after, versus histology

CC[N+]1=C(/C=C/C=C/C=C2/N(CCCCCC(=O)NC[C@@H]3C[C@@H]4CC[C@H]5C(=O)N[C@@H](CCCNC(=N)N)C(=O)NCC(=O)N[C@@H](CC(=O)O)C(=O)N[C@H]3C(=O)N45)c3ccc4c(S(=O)(=O)O)cc(S(=O)(=O)O)cc4c3C2(C)C)C(C)(C)c2c1ccc1c(S(=O)(=O)[O-])cc(S(=O)(=O)O)cc21 [DA364] was tested, and the “tumor signal ratio with respect to the background” value (U-87MG tumor; U-87 MG tumor in vivo, 3 hours to 24 hours after injection) was “stable signal ratio”, the “fluorescence signal in U-87MG tumor relative to A431 tumor” value (U-87MG tumor; [2]) was “about twice” and the “Fluorescence Signal (Radiant Efficiency)” value (U-87MG tumor; excised U87-MG tumor ex vivo, 48 hours after 1 nmol i.v.) was 6.78E+08 p/s/(μW/cm^2). For the same compound, the “tumor signal ratio with respect to the background” value (A431 tumor; A431 tumor in vivo, 3 hours to 24 hours after injection) was “stable signal ratio”, the “fluorescence intensity in A431 tumors relative to heart and spleen (background)” value (A431 tumor; [2]) was “about 10 times” and the “fluorescence intensity in A431 tumors relative to liver and kidney” value (A431 tumor; [2]) was “comparable”. For the same compound, the “Fluorescence Signal (Radiant Efficiency)” value (A431 tumor; excised A431 tumor ex vivo, 48 hours after 1 nmol i.v.) was 3.47E+08 p/s/(μW/cm^2), the “visualization of tumor under skin (FIG. 9)” value (A431 tumor; low-integrin expressing tumor A431, in vivo fluorescence imaging) was “clear visualization” and the “sensitivity of visual classification of tumor tissues” value [1, 3] was 87%. For the same compound, the “specificity of visual classification of tumor tissues” value [1, 3] was 83%, the “number of tissue samples, histology Negative” value ([1]; surgery class FLUORESCENT) was 3 and the “number of tissue samples, histology Positive” value ([1]; surgery class FLUORESCENT) was 20. For the same compound, the “number of tissue samples, histology Negative” value ([1]; surgery class NON FLUORESCENT) was 15 and the “number of tissue samples, histology Positive” value ([1]; surgery class NON FLUORESCENT) was 3.
